Assay results reported in patent publication US7109215B2, “Compounds possessing neuronal activity” (Vertex Pharmaceuticals Incorporated, priority 1997, dated 2006).
Marks after values point to notes of the source that are not given here.

Assays:
L1210vMDRC.06 cells = experiment: MDR sensitization (reversal) assay, doxorubicin, XTT viability; assay type: cell-based, mouse; conditions: compound 2.5 μM, IC50 Dox/IC50 Dox+Inhibitor
Description: (§1) We carried out multidrug resistance reversal (MDR) assays using L1210vMDRC.06 or HL60/Vinc cell lines. L1210vMDRC.06 are L1210 mouse leukemia cells transduced with the pHaMDR1/A retrovirus carrying a MDR1 cDNA, as described by Pastan et al., Proc. Natl. Acad. Sci. USA, 85, pp. 4486–4490 (1988). The L1210vMDRC.06 multidrug resistant line is a cell line that has been drug-selected by culturing transfected cells in 0.06 μg/ml colchicine. The HL60/Vinc human promyleocytic leukemia cell line is a multidrug resistant cell line derived from HL60 drug-sensitive parental cells by selection in increasing concentrations of vincristine.
Using L1210vMDRC.06, multidrug resistance reversal assays were conducted by plating 1×10^4 cells/well in 96 well microtiter plates and exposing them to a concentration range of doxorubicin (50 nM–10 μM) in the presence or absence of compounds of this invention (0.1, 0.25, 0.5, 1.0, or 2.5 μM) as described in U. Germann et al., Anti-Cancer Drugs, 8, pp. 125–140 (1997). After culture for 3 days, the viability of cells was quantitated using XTT dye to assess mitochondrial function [Roehm et al., J. Immunol. […] Results were determined by comparison of the IC50 for doxorubicin alone to the IC50 for doxorubicin+compound. An MDR ratio was calculated (IC50 Dox/IC50 Dox+Inhibitor) and the integer value used for comparison of compound potencies.

[1] = tested on: pheochromocytoma PC12 cells; experiment: Neurite outgrowth quantitation in PC12 cell system; assay type: cell-based, rat; conditions: 1–5 ng/ml NGF, 72 hours
Description: In order to directly determine the neurotrophic activity of compounds described in this invention, the neurite outgrowth assay was carried out with pheochromocytoma PC12 cells as described by Lyons et al. (1994).
PC12 cells were maintained at 37° C. and 5% CO2 in Dulbecco's modified Eagle's medium (DMEM) supplemented with 10% heat-inactivated horse serum, 5% heat-inactivated fetal bovine serum (FBS), and 1% glutamate.
The cells were then plated at […] in 96 well plates coated with […] rat tail collagen and allowed to attach overnight. The medium was then replaced with DMEM, 2% heat-inactivated horse serum, 1% glutamate, 1–5 ng/ml of NGF (Sigma) and varying concentrations of the compounds of this invention (0.01 nM–10000 nM). The background control culture was administered with […] of NGF alone without compound. Positive control cultures were administered with high concentration of NGF (50 ng/ml). The cells were then incubated at 37° C. at 5% CO2 for 72 hours, fixed with 3% formaldehyde and nerve outgrowth was determined visually on a scale of 0 to 4.

FKBP = FKBP (Homo sapiens, UniProt P62942); experiment: Rotamase inhibition assay (chymotrypsin-coupled PPIase assay); assay type: biochemical; conditions: 15 nM FKBP, 30 μM Suc-Ala-Leu-Pro-Phe-pNA, 15° C.
Chain of FKBP (P62942 whole entry): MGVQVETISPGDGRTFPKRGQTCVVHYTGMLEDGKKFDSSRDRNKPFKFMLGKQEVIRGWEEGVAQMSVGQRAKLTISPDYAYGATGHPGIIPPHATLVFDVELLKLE
Description: Inhibition of FKBP enzyme activity was determined in the PPIase assay described in S. T. Park et al., J. Biol. Chem., 267, pp. 3316–24 (1992), the disclosure of which is herein incorporated by reference. This is a chymotrypsin-coupled assay in which FKBP catalyzes the cis to trans isomerization of the Leu-Pro bond in the peptide substrate Suc-Ala-Leu-Pro-Phe-pNA. The trans form, but not the cis form, is cleavable by chymotrypsin. The release Phe-pNA was monitored by absorbance at 400 nm. Chymotrypsyn cleavage is very rapid and therefore cis-to-trans isomerization is rate-limiting.
Each reaction mix consisted of 0.1 M Tris buffer, pH 7.8, 15 nM FKBP, 30 μM substrate and 0.5 nM to 10 μM of compound to be tested diluted in Me2SO. The mixture was incubated at 15° C. for 5 minutes and then reaction was initiated by addition of chymotrypsin (100 μg/ml final concentration) and followed spectrophotometrically for 5 minutes. Total reaction volume was 1 ml.

HL60/Vinc cells = experiment: MDR sensitization (reversal) assay, doxorubicin, XTT viability; assay type: cell-based, human; conditions: compound 2.5 μM, IC50 doxorubicin alone / IC50 doxorubicin plus compound
Description: as §1
Assays using HL60/Vinc cells were performed by plating cells in 96 well microtiter plates at a concentration of 4×10^4 cells/well. The cells were then exposed to various concentrations of doxorubicin (9 nM to 6.7 μM) in the presence or absence of various compounds of this invention at various concentrations (0.5, 1.0, 2.5, 5.0 or 10 μM) as described in U. Germann et al., Anti-Cancer Drugs, 8, pp. 141–155 (1997). After culturing the cells for 3 days, their viability was quantitated using the XTT dye method to assess mitochondrial function (Roehm et al., supra). Results were expressed as a ratio of the IC50 for doxorubicin alone to the IC50 for doxorubicin plus compound. In all assays the intrinsic antiproliferative or cytotoxicity activity of the MDR inhibitors was also determined for HL60/Vinc cells.

| SMILES | Ki (FKBP) | MDR Ratio (L1210vMDRC.06 cells) | Neurite outgrowth, visual scale of 0 to 4 ([1]; compound 10 nM) | Neurite outgrowth, visual scale of 0 to 4 ([1]; compound 100 nM) | Neurite outgrowth, visual scale of 0 to 4 ([1]; compound 1000 nM) | MDR Ratio (HL60/Vinc cells) | Neurite outgrowth, visual scale of 0 to 4 ([1]; compound 0.01 nM) | Neurite outgrowth, visual scale of 0 to 4 ([1]; compound 0.1 nM) | Neurite outgrowth, visual scale of 0 to 4 ([1]; compound 1 nM) | Neurite outgrowth, visual scale of 0 to 4 ([1]; compound 10000 nM) |
| --- | --- | --- | --- | --- | --- | --- | --- | --- | --- | --- |
| COc1cc(C(=O)CN2CCCCC2C(=O)OC(CCCc2cccnc2)CCCc2cccnc2)cc(OC)c1OC (stereo not drawn) [Compound 105] | – | 10 | 4 | 4 | 0 | – | – | – | – | – |
| CNC(Cc1ccccc1)C(=O)N(C)CCc1ccccn1 (stereo not drawn) [Compound 107] | > 25 µM | – | – | 3* | 0* | 0.9 | – | – | – | – |
| CNC(Cc1ccccc1)C(=O)N(C)CCCc1cccnc1 (stereo not drawn) [Compound 108] | > 25 µM | – | 0 | 3 | 0 | 0.4 | – | – | – | – |

More lines, main results first:

| Ki (FKBP) | SMILES | MDR Ratio (L1210vMDRC.06 cells) | Neurite outgrowth, visual scale of 0 to 4 ([1]; compound 10 nM) | Neurite outgrowth, visual scale of 0 to 4 ([1]; compound 100 nM) | Neurite outgrowth, visual scale of 0 to 4 ([1]; compound 1000 nM) | MDR Ratio (HL60/Vinc cells) | Neurite outgrowth, visual scale of 0 to 4 ([1]; compound 0.01 nM) | Neurite outgrowth, visual scale of 0 to 4 ([1]; compound 0.1 nM) | Neurite outgrowth, visual scale of 0 to 4 ([1]; compound 1 nM) | Neurite outgrowth, visual scale of 0 to 4 ([1]; compound 10000 nM) |
| --- | --- | --- | --- | --- | --- | --- | --- | --- | --- | --- |
| > 25 µM | CN(CCCc1cccnc1)C(=O)C1CCCCN1 (stereo not drawn) [Compound 110] | – | – | 3* | 0* | 1.1 | – | – | – | – |
| > 50 µM | CN1CCCCC1C(=O)OC(CCCc1ccncc1)CCCc1cccnc1 (stereo not drawn) [Compound 111] | – | 2** | 4** | 4** | 1.2 | 4* | 4* | 3* | 4* |
| > 50 µM | CC(C)CN1CCCCC1C(=O)OC(CCCc1ccncc1)CCCc1cccnc1 (stereo not drawn) [Compound 112] | – | 3* | 4* | 3* | 2.4 | – | – | – | – |
| > 50 µM | O=C(OC(CCCc1ccncc1)CCCc1cccnc1)C1CCCCN1Cc1ccncc1 (stereo not drawn) [Compound 113] | – | 3* | 4* | 4* | 2.3 | – | – | – | – |
